Each structure is given as a SMILES string.

In assay [1] the test system is plasma creatine kinase (CK) activity. As to the kind of experiment: Plasma creatine kinase assay in mdx mice. It counts as in vivo, mouse. The settings on record: 5-month-old mdx males, day 4 post CTX, vs vehicle. The procedure: The effects of THI in the dystrophic mdx mouse model were studied. […] THI was administered intraperitoneally (IP) to three groups of mdx mice. Right tibialis anterior (TA) and quadriceps muscles were uninjured, while left counterparts were injured using CTX, a well characterized model of acute injury where initial muscle destruction is followed by a rapid myogenic response. The mdx mice were injected with THI, or PBS as a vehicle control, immediately following injury with CTX 5 times during a 3-day period (FIG. 3a). In the first group (N=6, 5-month-old males) the mdx mice were sacrificed at day 4 to analyze the efficacy of the administration of THI for increasing S1P levels in spleen, CTX injured quadriceps, and uninjured quadriceps. The effects of THI administration on the plasma creatine kinase (CK) activity level was also measured.
Mdx mouse plasma samples were diluted 1:50 and total creatine kinsase activity was measured by an enzymatic rate method using a Beckman Coulter instrument. Relative levels were then normalized to body weight.

Assay [2] concerns Dystrophic mutant flies (TubGal4:UAS-Dys^C-RNAi/+). Kind of assay: Myofibril Projectin immunohistochemistry in dystrophic flies after oral THI. The format is in vivo, Drosophila melanogaster. The settings on record: 3 days once-daily oral THI, myofibrils from 10 day old flies. The procedure: In mice, the genetic reduction of S1P lyase activity can be phenocopied pharmacologically by the delivery of the small molecule 1-[5-[(1R,2S,3R)-1,2,3,4-tetrahydroxybutyl]-1H-imidazol-2-yl]-ethanone (THI), which inhibits the activity of S1P lyase. Dystrophic mutant flies were administered THI to investigate possible THI suppression of the muscle degeneration phenotype.
Flies were dipped in 95% EtOH and then dissected in 1×PBS (pH 7.4). Heads and abdomens were removed, and the thoraxes opened. Samples were stained using a modified ovary staining protocol 3. Samples were then fixed in 5% paraformaldehyde (Electron Microscopy Sciences) for 1 hour, rinsed in PBT (PBS/0.2% Triton X-100 v/v) 4 times, and then blocked for 1 hour in PBTB (PBT, 0.4% BSA w/v, 5% Normal Goat Serum v/v) at room temperature. Samples were stained in primary antibody pre-diluted in PBTB (Phalloidin-Alexa-Fluor 568, Invitrogen [mouse, 1:200]; Projectin (Mac150), Babraham Institute [rat, 1:50]) overnight at 4° C., rinsed in PBT 4 times at room temperature (RT), and then stained with secondary antibody pre-diluted in PBTB (Alexa Fluor 488 [mouse, 1:500]) overnight at 4° C. […] For each genotype, 4-5 flies were analyzed, and 6-7 muscles per fly were analyzed. […]

Another assay relates to S1P level. As to the kind of experiment: S1P levels in tissues of CTX injured mdx mice after IP THI. It counts as in vivo, mouse. The settings on record: 5-month-old mdx males, IP THI 5 times during 3 days, day 4 post CTX, vs vehicle. The procedure:
(a) Experimental schematic of THI (0.075 μg/day) and PBS (vehicle) treated mdx mice injected intraperitoneally (IP) twice daily for the first 72 hours following cardiotoxin (CTX) injury. Muscles, spleen or plasma from 5MO (n=6) mdx males were harvested for S1P and creatin kinase (CK) analysis at day 4 post CTX injury. Muscles from aged mdx mice (n=7 THI treated: 3 11MO females, 4 16MO males. n=6 vehicle: 3 11MO females, 3 16MO males) were harvested for histopathology analysis 18 days post CTX injury. […] (d) Quantification of Picrosirius Red staining indicates reduced fibrosis following injury in both Tibialis Anterior (TA) and Quadriceps (Quads) muscles in mice treated with THI. […] Scale bars=50 μm. (f) Oil Red-O staining depicts fat deposits (arrows) over the entire cross-sectional area of THI treated and control injured TAs. […] Error bars represent SEM.
The effects of THI in the dystrophic mdx mouse model were studied. […] THI was administered intraperitoneally (IP) to three groups of mdx mice. Right tibialis anterior (TA) and quadriceps muscles were uninjured, while left counterparts were injured using CTX, a well characterized model of acute injury where initial muscle destruction is followed by a rapid myogenic response. […] The effects of THI administration on the plasma creatine kinase (CK) activity level was also measured.

Regarding `CC(=O)c1ncc([C@@H](O)[C@H](O)[C@H](O)CO)[nH]1` [THI, 1-[5-[(1R,2S,3R)-1,2,3,4-tetrahydroxybutyl]-1H-imidazol-2-yl]-ethanone], in assay [1], the “plasma CK levels” value is listed as “reduced”. Besides, the “suppression of muscle wasting (myofibrils)” value in assay [2] was “significant suppression of muscle wasting”. Moreover, in the assay with S1P level, the “S1P level in CTX injured quadriceps” value was “significantly increased” and the “S1P level in spleen tissue” value is “significantly increased”.

(Values after patent publication US20140051729A1, “COMPOSITIONS AND METHODS FOR TREATING DEGENERATIVE MUSCLE CONDITIONS” (University of Washington, priority 2011, published 2014).)
